Non-standard residues stand in square brackets, D forms with d. Residues, ends and D or L forms follow the SMILES beside them. Dip = N[C@H](C(=O)O)C(c1ccccc1)c1ccccc1
Experiments:
A375 cells = experiment: Release of HMGB1 (Western blot); format: cell-based, human; settings: 35 μM, up to 60 min
Experimental: A375 cells were seeded with 3×10^5 cells/well in 6-well plates in a complete media, and allowed to adhere overnight. Cells were treated with LTX-315 or LTX-328 at 35 μM, and incubated at 37° C. and 5% CO2 for different time points (5, 10, 15, 30, 60 min), and negative controls were serum-free RPMI-1650. Supernatants (S) were collected and centrifuged at 1,400 g for five minutes, and cell lysates (L) were harvested after washing with PBS twice and then subsequently lysed using a 4× Sample buffer (Invitrogen, number), 0.1 M DTT (Sigma number) and water. Supernatants were concentrated using Amicon Ultra 50K centrifugal filters (Millipore UFC505024), and the cell lysate was sonicated. Both supernatants and lysate were boiled and resolved in a 10% sodium dodecyl sulfate polyacrylamide gel electrophoresis (SDS-PAGE), and then electro transferred to a polyvindiline difluoride (PVDF) membrane (Millipore). The membrane was blocked in 5% milk and incubated with the HMGB1 antibody (rabbit, polyclonal, abcam ab 18256); the membrane was then rinsed several times with TBST, incubated with a horseradish peroxidase (HRP)-conjugated secondary antibody (abcam ab6721), rinsed again with TBST and then developed using WB Luminol Reagent (Santa Cruz Biotechnology, Heidelberg, Germany).

[1] = test system: murine A20 B-cell lymphoma; experiment: Adoptive spleen cell transfer, A20 lymphoma model; format: in vivo, Balb/c mice; settings: donors: 1 mg intratumoural once daily for 3 days
Experimental: […] Balb/c mice (n=32) were each inoculated with A20 cells (5 million in 50 μL s.c.) on the abdominal surface. Once tumours had reached 20 mm^2 they were injected with LTX-315 (1 mg) injected intratumourally, once daily for 3 days, in a volume of 50 μL. Tumour size (mm^2) and body weight were subsequently monitored and a further injection of LTX-315 was given if any tumour re-growth was observed. Subsequently, mice showing complete tumour regression were sacrificed and used as donors for transfer of splenocytes while naive donor mice were used as controls. Spleens from donor mice were excised and cells isolated. Naive receiver mice were irradiated and divided into 2 groups. Group 1 received isolated splenocytes from cured mice, whereas group 2 received isolated splenocytes from naive mice. Freshly prepared cells were injected (20×106 per 100 μl) via the tail vein. Twenty four hours later receiver mice were inoculated with 5 million murine A20 B-cell lymphoma cells on the abdominal surface as described above. Tumour size and body weight were monitored until the maximum tumour burden of ˜125 mm^2 was reached, or a serious adverse events occurred (i.e. wound formation due to tumour tissue necrosis) at which point mice were sacrificed.

human red blood cells = experiment: Haemolytic activity in vitro; format: cell-based; settings: for Mean cell death (%): 1 h 37° C., 1% RBC
Experimental: Freshly collected human blood was centrifuged at 1500 rpm for 10 minutes in order to isolate the red blood cells. The red blood cells (RBC) were washed three times with PBS [35 mM phosphate buffer with 150 mM NaCl, pH 7.4] by centrifugation at 1500 rpm for 10 minutes, and adjusted to 10% haematocrit with PBS. LTX-315 solutions were added to give a final concentration range of the peptide from 1200 μg/ml to 1 μg/ml and an RBC concentration of 1%. The resulting suspension was incubated with agitation for one hour at 37° C. After incubation the suspension was centrifuged at 4000 rpm for 5 minutes, and the released haemoglobin were monitored by measuring the absorbance of the supernatant at 405 nm. PBS was used as negative control and assumed to cause no haemolysis. 0.1% Triton was used as positive control and assumed to cause complete haemolysis.
Released haemoglobin was monitored by measuring the absorbance of the supernatant at 405 nm, and percent haemolysis was calculated by the equation: % Haemolysis=[(A405 LTX-315−A405 PBS)/(A405 0.1% Triton X-100−A405 PBS)]×100
LTX-315 concentration corresponding to 50% haemolysis (EC50) was determined from a dose-response curve.

[2] = test system: CT26WT colon carcinoma cells; experiment: Re-challenge with CT26WT colon carcinoma in mice with complete regression; format: in vivo, Balb-c mice; settings: of 9 mice previously treated with 0.5 or 1 mg
Experimental: (§1) Methods: Female Balb-c mice (n=4), previously treated with LTX-315, 1 mg) or (n=9); previously treated with LTX-315 0.5 or 1 mg) were re-inoculated (s.c. in the abdominal area) with either murine A20 B cell lymphoma cells or CT26WT colon carcinoma cells (5 million) respectively 6 weeks following initial treatment with LTX-315. Tumour growth was monitored for up to 36 days following re-inoculation.

[3] = test system: murine A20 B cell lymphoma cells; experiment: Re-challenge with A20 B-cell lymphoma in mice with complete regression; format: in vivo, Balb-c mice
Experimental: as §1

[4] = test system: panel of 37 human cancer cell lines; format: cell-based
Experimental: The adherent cell lines were washed once with 200 μl FBS-free culture medium before treatment. […] compounds in ¼ dilution step with a top dose of 400 μM (range 4×10^−4 to 4×10^−10 M), with 1% (final concentration) Triton X-100 as positive control and FBS-free culture medium as negative control. The cells (190 μl) were incubated in a 200 μl final volume of FBS-free culture medium containing test substances at 37° C. under 5% CO2.
Three independent experiments were performed, each concentration being tested in quadruplicate. Control cells were treated with vehicle alone. At the end of treatments, the cytotoxic activity was evaluated by a MTS assay (see § 3.3.).
Like MTT, MTS is bioreduced by cells into a formazan product that is directly soluble in culture medium without processing, unlike MTT.
At the end of the cells treatment, 40 μl of a 0.22 μm filtered freshly combined solution of MTS (20 ml at 2 mg/ml, Ref G1111, Batch 235897, Exp March 2009, Promega, Charbonnières, France) and PMS (1 ml at 0.92 mg/ml, Ref P9625, Batch 065K0961, Sigma) in Dulbecco's Phosphate Buffered Saline (DPBS, Ref 17-513Q, Batch 6MB0152, Cambrex), were added in each well. Culture plates were incubated for 2 h at 37° C. Absorbency (OD) were measured at 490 nm in each well using VICTOR^3™ 1420 multilabeled counter (Wallac, PerkinElmer, Courtaboeuf, France).
IC50: drug concentration to obtain a 50% inhibition of cell proliferation.
The dose-response curves were plotted using XLFit 3 (IDBS, United Kingdom). The IC50 determination values were calculated using the XLFit 3 software from semi-log curves. Individual IC50 determination values as well as mean and SD values were generated.

NCCCC[C@H](NC(=O)[C@@H](NC(=O)[C@H](Cc1c[nH]c2ccccc12)NC(=O)[C@H](CCCCN)NC(=O)[C@H](CCCCN)NC(=O)[C@H](Cc1c[nH]c2ccccc12)NC(=O)[C@H](Cc1c[nH]c2ccccc12)NC(=O)[C@H](CCCCN)NC(=O)[C@@H](N)CCCCN)C(c1ccccc1)c1ccccc1)C(N)=O [LTX-315, K-K-W-W-K-K-W-Dip-K-NH2] (H-KKWWKKW[Dip]K-NH2)
HMGB1 translocation from cell lysate to supernatant (A375 cells): gradual translocation from the cell lysate to the supernatant detected | Tumour growth in irradiated recipients of splenocytes from LTX-315-cured donors versus naive donors [1]: Inhibition of tumour growth was observed | Mean cell death (%) (human red blood cells; LTX-315 1 μg/ml): 0.0% | Mean cell death (%) (human red blood cells; LTX-315 10 μg/ml): 0.6% | Mean cell death (%) (human red blood cells; LTX-315 50 μg/ml): 1.6% | Mean cell death (%) (human red blood cells; LTX-315 100 μg/ml): 3.6% | Mean cell death (%) (human red blood cells; LTX-315 500 μg/ml): 20.4% | Mean cell death (%) (human red blood cells; LTX-315 1000 μg/ml): 38.2% | Mean cell death (%) (human red blood cells; LTX-315 1200 μg/ml): 37.7% | Mean EC50 (50% haemolysis) (human red blood cells; human red blood cells): greater than 1200 μg/ml | EC50 (human red blood cells; human red blood cells, read-out: Mean EC50 (50% haemolysis)): > 833 µM | IC50 (human red blood cells; red cells of human): ≥ 833 µM | Animals with complete regression after re-inoculation [2]: 2 | Mice with inhibition of tumour growth after re-inoculation ([2]; P<0.01 versus control): 7 | Tumour growth after re-inoculation versus control animals ([3]; all 4 mice previously treated with LTX-315 1 mg, re-inoculated 6 weeks after treatment, P<0.006): Significant inhibition | Mice with complete tumour regression after re-inoculation ([3]; of 4 mice previously treated with 1 mg): 3 | Animals with relapse after re-inoculation ([3]; of 4 mice, 3 weeks later): 1 | Potency rank among the five compounds tested, 37 cell line panel [4]: most potent compound from the five compounds tested | IC50 ([4]; 4 h): 3.63 ± 1.45 µM | IC50 range against 37 human cancer cell lines ([4]; conclusion): micromolar to ten micromolar range

From patent US11123398B2, “Chemotherapeutic combinations of cationic antimicrobial peptides and chemotherapeutics” (LYTIX BIOPHARMA AS, priority 2014, dated 2021)
